These results are taken from patent US20240239792A1, “MODULATORS OF BCL-2 OR BCL-2/BCL-XL AND USES THEREOF” (APPICINE THERAPEUTICS (HK) LIMITED, priority 2021, published 2024).

For one data set, the target named is T1, BCL-2 (Homo sapiens, UniProt P10415).
T1 construct: purchased Cisbio 63ADK000CB01PEG
The data set can be described thus: HTRF BCL-2/BAK assay (Cisbio). Format: binding. The following applies: recombinant human Tag1-BCL-2 2 nM, Tag2-BAK 10 nM. The protocol:
(§1) Then the pre-mixed anti-Tag1-Eu^3+ and anti-tag2-XL665 were added to the plate and further incubated at room temperature for another 2 hours. The signals ([…]) were read on Envision 2104 instrument. The IC50 for each compound was derived from fitting the signal of 665/615 nM to the increasing compound concentration.
(§2) Using the above assays, the following compounds were tested.

The target in a further data set is T2, BCL-XL (Homo sapiens, UniProt Q07817).
T2 construct: purchased Cisbio 63ADK000CB04PEG
Briefly: HTRF BCL-XL/BAK assay (Cisbio). The data set is classed as binding. Conditions: recombinant human Tag1-BCL-XL 2 nM, Tag2-BAK 5 nM. The protocol: as §1, §2

The test system of another data set is DOHH2 cells. Briefly: CellTiter-Glo cell proliferation assay, DOHH2 cells. The data set is classed as cell-based. Conditions: Homo sapiens, DOHH-2, 72 hours. In outline:
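GI50 derived from CellTiter-Glo luminescent viability signal. Cells grown in DMEM with 10% FBS received a compound dilution series for 72 h (37 °C, 5% CO2).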

Data set [1] deals with RS4;11 subcutaneous xenograft tumor. Briefly: In vivo pharmacodynamic study, NOD/SCID RS4;11 subcutaneous xenograft tumor model. More on the design: species or system NOD/SCID female mouse. Conditions: q.d., after 20 days dosing. How it is done:
In general, NOD/SCID RS4;11 subcutaneous xenograft tumor model was established by inoculating 5*10^6/0.1 ml/mouse subcutaneously in the right back of the NOD/SCID female mouse. The animals were checked daily for any effects of treatments on behaviors such as mobility, food and water consumption, body weight gain/loss, eyes, hairs and any other abnormalities. Mortality and clinical signs observed during the study were recorded in the raw data. Animal weight and tumor size were measured every two days during the study. Tumor volume (TV) was calculated as: TV=0.5*a*b^2, wherein a and b represent the measured length and width of tumor, respectively. Relative tumor proliferation inhibition rate (TGIRTV (%)), as an indication of anti-tumor effectiveness, was calculated as: TGIRTV (%)=(1−TRTV/CRTV)*100%, wherein TRTV and CRTV were relative tumor volume (RTV) in treatment group and vehicle control group, respectively. RTV was calculated as: RTV=Vt/V0, wherein Vt and V0 represented the tumor volume measured on day t after dosing and on the first day of dosing. At the end of last dosing, plasma and tumor tissue were collected, weighed, and photographed according to requirements of the study protocol.
The TGIRTV(%) values after 20 days dosing were shown in Table 5 below, where “+++” represented TGIRTV(%)≥[…]; “++” represented 30%<TGIRTV(%)<80%. p.o. stands for “per os”; I.P. stands for “intraperitoneal”; q.d. refers to “once daily”.

A further data set concerns the target T3, CYP2C9 (Homo sapiens, UniProt P11712).
T3 construct: from tissue; host or cells: human liver microsomes
Briefly: CYP2C9 activity assay in human liver microsomes, substrate diclofenac. The following applies: probe diclofenac, test compound 1 μM, 37° C. 10 min, read-out: Inhibition rate (%) against CYP2C9 Enzyme. Format: in vitro ADME. How it is done:
In this assay, several exemplary compounds of the present disclosure and a control compound (Venetoclax) were used as the test compounds. In general, the assay was conducted by the following steps: • 1. The solution of test compound, human liver microsomes solution, and substrate (diclofenac) solution were mixed in a 96-well assay plate on ice to, and the final concentration of each test compound is 1 μM; • 2. The 96-well assay plate and NADPH solution were pre-incubated at 37° C. for 5 minutes; • 3. NADPH solution was added to into the assay plates to initiate the reaction; • 4. The assay plate was incubated at 37° C. for 10 min; • 5. The reaction was stopped; and after quenching, a portion of the supernatant was taken from each well for LC/MS analysis; • 6. The inhibition rate was calculated by the following equation: Inhibition rate (%)=(1−Valuetest/Valuecontrol)×100%, where Valuetest refers to the LC/MS data obtained from wells with test compounds and Valuecontrol refers to the LC/MS data obtained from wells without test compound.

T2 sequence (Q07817 whole entry): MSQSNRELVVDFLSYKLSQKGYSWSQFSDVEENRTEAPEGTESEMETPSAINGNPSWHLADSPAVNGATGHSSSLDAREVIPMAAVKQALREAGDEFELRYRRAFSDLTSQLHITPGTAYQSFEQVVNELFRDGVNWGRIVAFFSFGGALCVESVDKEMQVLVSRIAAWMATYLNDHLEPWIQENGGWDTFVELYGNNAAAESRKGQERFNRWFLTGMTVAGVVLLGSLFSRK
T1 sequence (P10415 whole entry): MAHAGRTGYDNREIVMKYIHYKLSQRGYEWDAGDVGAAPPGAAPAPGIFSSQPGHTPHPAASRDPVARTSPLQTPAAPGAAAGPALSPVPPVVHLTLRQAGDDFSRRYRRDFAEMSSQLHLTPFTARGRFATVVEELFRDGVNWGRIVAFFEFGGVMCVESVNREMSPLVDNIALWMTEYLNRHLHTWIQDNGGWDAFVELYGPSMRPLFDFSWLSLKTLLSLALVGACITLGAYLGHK
T3 sequence (P11712 whole entry): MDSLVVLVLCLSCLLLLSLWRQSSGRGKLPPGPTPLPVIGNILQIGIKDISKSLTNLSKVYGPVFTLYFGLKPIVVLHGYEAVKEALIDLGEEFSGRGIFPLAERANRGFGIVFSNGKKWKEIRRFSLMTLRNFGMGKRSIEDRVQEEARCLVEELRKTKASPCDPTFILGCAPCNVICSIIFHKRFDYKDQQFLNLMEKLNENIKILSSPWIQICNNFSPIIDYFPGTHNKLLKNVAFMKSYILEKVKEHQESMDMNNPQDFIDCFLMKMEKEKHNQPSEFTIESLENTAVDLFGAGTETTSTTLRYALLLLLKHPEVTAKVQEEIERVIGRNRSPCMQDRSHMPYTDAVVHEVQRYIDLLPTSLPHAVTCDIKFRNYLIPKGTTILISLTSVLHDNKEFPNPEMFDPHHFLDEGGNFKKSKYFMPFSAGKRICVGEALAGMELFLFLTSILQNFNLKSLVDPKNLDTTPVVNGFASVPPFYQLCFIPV

Take `O=C(NS(=O)(=O)c1ccc(NCCN2CCOCC2)c([N+](=O)[O-])c1)c1ccc(N2CCN(C3CCCCc4c(Cl)cccc43)CC2)cc1Oc1cnc2[nH]ccc2c1` (centres unmarked) [Compound 31, 2-((1H-pyrrolo[2,3-b]pyridin-5-yl)oxy)-4-(4-(1-chloro-6,7,8,9-tetrahydro-5H-benzo[7]annulen-5-yl)piperazin-1-yl)-N-((4-((2-morpholinoethyl)amino)-3-nitrophenyl)sulfonyl)benzamide]: the IC50 at BCL-2 was below 20 nM; on BCL-XL, 20 to 200 nM. This molecule also registered a GI50 in the data set with DOHH2 cells below 50 nM. The “TGIRTV(%)” value in data set [1] (25 mg/kg, p.o.) is listed as “++ (30%<TGIRTV(%)<80%)”.

Take `O=C(NS(=O)(=O)c1ccc(NCC2CCOCC2)c([N+](=O)[O-])c1)c1ccc(N2CCN([C@@H]3CCCCc4c(Cl)cccc43)CC2)cc1Oc1cnc2[nH]ccc2c1` [Compound 70, (R)-2-((1H-pyrrolo[2,3-b]pyridin-5-yl)oxy)-4-(4-(1-chloro-6,7,8,9-tetrahydro-5H-benzo[7]annulen-5-yl)piperazin-1-yl)-N-((3-nitro-4-(((tetrahydro-2H-pyran-4-yl)methyl)amino)phenyl)sulfonyl)benzamide]: the IC50 on BCL-2 was below 20 nM. In the data set with DOHH2 cells, the GI50 was below 50 nM. The “TGIRTV(%)” value in data set [1] (60 mg/kg, p.o.) is “+++ (TGIRTV(%)≥800)”.

As for `O=C(NS(=O)(=O)c1ccc(NCC2CCOCC2)c([N+](=O)[O-])c1)c1ccc(N2CCC3(CC2)CN(C2CCCc4ccccc42)C3)cc1Oc1cnc2[nH]ccc2c1` (centres unmarked) [Compound 94, 2-((1H-pyrrolo[2,3-b]pyridin-5-yl)oxy)-N-((3-nitro-4-(((tetrahydro-2H-pyran-4-yl)methyl)amino)phenyl)sulfonyl)-4-(2-(1,2,3,4-tetrahydronaphthalen-1-yl)-2,7-diazaspiro[3.5]nonan-7-yl)benzamide], the 50% inhibitory concentration (IC50) at BCL-2 is below 20 nM. The inhibition at 10 min, 1 µM on CYP2C9 was below 30%. Also, the GI50 in the data set on DOHH2 cells lay within 500 to 5000 nM.

Consider `CC(C)(C)OC(=O)N1CCC2(CC1)CC(CNc1ccc(S(=O)(=O)NC(=O)c3ccc(N4CCN([C@@H]5CCCCc6c(Cl)cccc65)CC4)cc3Oc3cnc4[nH]ccc4c3)cc1[N+](=O)[O-])C2` [Compound 100, tert-butyl (R)-2-(((4-(N-(2-((1H-pyrrolo[2,3-b]pyridin-5-yl)oxy)-4-(4-(1-chloro-6,7,8,9-tetrahydro-5H-benzo[7]annulen-5-yl)piperazin-1-yl)benzoyl)sulfamoyl)-2-nitrophenyl)amino)methyl)-7-azaspiro[3.5]nonane-7-carboxylate], for which the IC50 on BCL-2 was below 20 nM; on BCL-XL, 200 to 2000 nM. The inhibition at 10 min, 1 µM at CYP2C9 was below 30%. In the data set with DOHH2 cells, this molecule gave a GI50 of 50 to 500 nM.

`O=C(NS(=O)(=O)c1ccc(NCC2CC3(CCNCC3)C2)c([N+](=O)[O-])c1)c1ccc(N2CCN([C@@H]3CCCCc4c(Cl)cccc43)CC2)cc1Oc1cnc2[nH]ccc2c1` [Compound 104, (R)-2-((1H-pyrrolo[2,3-b]pyridin-5-yl)oxy)-N-((4-(((7-azaspiro[3.5]nonan-2-yl)methyl)amino)-3-nitrophenyl)sulfonyl)-4-(4-(1-chloro-6,7,8,9-tetrahydro-5H-benzo[7]annulen-5-yl)piperazin-1-yl)benzamide]: the IC50 on BCL-2 and at BCL-XL was below 20 nM each time. The inhibition at 10 min, 1 µM at CYP2C9 was below 30%. In the data set with DOHH2 cells, this molecule returned a GI50 below 50 nM. Besides, the “TGIRTV(%)” value in data set [1] (21 mg/kg, I.P.) was “+++ (TGIRTV(%)≥800)”.

For the molecule `CS(=O)(=O)N1CCC2(CC1)CC(CNc1ccc(S(=O)(=O)NC(=O)c3ccc(N4CCN([C@@H]5CCCCc6c(Cl)cccc65)CC4)cc3Oc3cnc4[nH]ccc4c3)cc1[N+](=O)[O-])C2` [Compound 107, (R)-2-((1H-pyrrolo[2,3-b]pyridin-5-yl)oxy)-4-(4-(1-chloro-6,7,8,9-tetrahydro-5H-benzo[7]annulen-5-yl)piperazin-1-yl)-N-((4-(((7-(methylsulfonyl)-7-azaspiro[3.5]nonan-2-yl)methyl)amino)-3-nitrophenyl)sulfonyl)benzamide], the IC50 was below 20 nM on BCL-2 and 20 to 200 nM at BCL-XL. Also, the inhibition at 10 min, 1 µM at CYP2C9 is 31%. In the data set with DOHH2 cells, the GI50 is below 50 nM.

As to `CN1CCC2(CC1)CC(CNc1ccc(S(=O)(=O)NC(=O)c3ccc(N4CCN([C@@H]5CCCCc6c(Cl)cccc65)CC4)cc3Oc3cnc4[nH]ccc4c3)cc1[N+](=O)[O-])C2` [Compound 108, (R)-2-((1H-pyrrolo[2,3-b]pyridin-5-yl)oxy)-4-(4-(1-chloro-6,7,8,9-tetrahydro-5H-benzo[7]annulen-5-yl)piperazin-1-yl)-N-((4-(((7-methyl-7-azaspiro[3.5]nonan-2-yl)methyl)amino)-3-nitrophenyl)sulfonyl)benzamide], the IC50 on BCL-2 and on BCL-XL was below 20 nM each time. The inhibition at 10 min, 1 µM at CYP2C9 is below 30%. This molecule displayed a 50% growth inhibitory concentration (GI50) in the data set with DOHH2 cells below 50 nM.

Take `CC(=O)NCCN1CCC2(CC1)CC(CNc1ccc(S(=O)(=O)NC(=O)c3ccc(N4CCN([C@@H]5CCCCc6c(Cl)cccc65)CC4)cc3Oc3cnc4[nH]ccc4c3)cc1[N+](=O)[O-])C2` [Compound 112, (R)-2-((1H-pyrrolo[2,3-b]pyridin-5-yl)oxy)-N-((4-(((7-(2-acetamidoethyl)-7-azaspiro[3.5]nonan-2-yl)methyl)amino)-3-nitrophenyl)sulfonyl)-4-(4-(1-chloro-6,7,8,9-tetrahydro-5H-benzo[7]annulen-5-yl)piperazin-1-yl)benzamide]: the IC50 on BCL-2 and at BCL-XL was below 20 nM throughout. Further, on CYP2C9, the inhibition at 10 min, 1 µM was 33%. In addition, in the data set with DOHH2 cells, the GI50 was below 50 nM.

As to `O=C(NS(=O)(=O)c1ccc(NCC2CC3(CCN(CC(F)F)CC3)C2)c([N+](=O)[O-])c1)c1ccc(N2CCN([C@@H]3CCCCc4c(Cl)cccc43)CC2)cc1Oc1cnc2[nH]ccc2c1` [Compound 113, (R)-2-((1H-pyrrolo[2,3-b]pyridin-5-yl)oxy)-4-(4-(1-chloro-6,7,8,9-tetrahydro-5H-benzo[7]annulen-5-yl)piperazin-1-yl)-N-((4-(((7-(2,2-difluoroethyl)-7-azaspiro[3.5]nonan-2-yl)methyl)amino)-3-nitrophenyl)sulfonyl)benzamide], the figures for the IC50 at BCL-2 and at BCL-XL were below 20 nM and 20 to 200 nM, respectively. In addition, on CYP2C9, the inhibition at 10 min, 1 µM was below 30%. For the same molecule, in the data set with DOHH2 cells, the GI50 was below 50 nM. In data set [1] (50 mg/kg, p.o.), the “TGIRTV(%)” value is listed as “+++ (TGIRTV(%)≥800)”.

On to `O=C(NS(=O)(=O)c1ccc(NCC2CC3(CCN(CC(F)(F)F)CC3)C2)c([N+](=O)[O-])c1)c1ccc(N2CCN([C@@H]3CCCCc4c(Cl)cccc43)CC2)cc1Oc1cnc2[nH]ccc2c1` [Compound 115, (R)-2-((1H-pyrrolo[2,3-b]pyridin-5-yl)oxy)-4-(4-(1-chloro-6,7,8,9-tetrahydro-5H-benzo[7]annulen-5-yl)piperazin-1-yl)-N-((3-nitro-4-(((7-(2,2,2-trifluoroethyl)-7-azaspiro[3.5]nonan-2-yl)methyl)amino)phenyl)sulfonyl)benzamide], for which the IC50 is below 20 nM at BCL-2 and 200 to 2000 nM at BCL-XL. Also, the inhibition at 10 min, 1 µM at CYP2C9 was below 30%. This molecule also gave a GI50 with DOHH2 cells of 50 to 500 nM.

Turning to `CC1(C)CCC(CN2CCN(c3ccc(C(=O)NS(=O)(=O)c4ccc(NCC5CCOCC5)c([N+](=O)[O-])c4)c(Oc4cnc5[nH]ccc5c4)c3)CC2)=C(c2ccc(Cl)cc2)C1` [Venetoclax, reference compound], on CYP2C9, the inhibition at 10 min, 1 µM amounted to 49%.
